Experimental data taken from US10301351B2, “Stitched polypeptides” (President and Fellows of Harvard College, priority 2007, dated 2019).
Bridge positions count the residues as written; N and C are the ends. Square brackets hold non-standard residues; d marks the D form. S8 = C=CCCCCCC[C@](C)(N)C(=O)O; R5 = C=CCCC[C@@](C)(N)C(=O)O; S5 = C=CCCC[C@](C)(N)C(=O)O; Aib = CC(C)(N)C(=O)O

Assays:
[1] = Circular dichroism, temperature-dependent spectra and thermal unfolding curves; format: physicochemical
Protocol: Peptides were dissolved in water to described concentrations, and the concentrations were determined by absorbance spectroscopy (extinction coefficient for tryptophan, ε280=5690 cm^-1). Circular dichroism spectra were collected on a Jasco J-710 spectropolarimeter equipped with a temperature controller using the following standard measurement parameters: 0.5 nm step resolution, 20 nm/sec speed, 10 accumulations, 1 sec response, 1 nm bandwidth, 0.1 cm path length. All spectra were converted to a uniform scale of molar ellipticity after background subtraction. Temperature-dependent CD spectra of each peptide (94-100 μM) were recorded at varying temperatures (4° C. and every 10° C. from 10° C. to 90° C.) from 260 to 185 nm. CD measurements with varying concentrations (18, 48, 70, and 118 μM) of peptide 4 were performed at 20° C. To generate thermal unfolding curves, the ellipticity at 222 nm for each peptide (94-100 μM) was measured every 1° C. from 4 to 95° C. with temperature slope of 3° C./min. To obtain Tm, we analyzed the thermal unfolding curves using a two-state model as previously described with 95% confidence interval (see […]. Biophysic. J. 2003, 85, 1457-1465). […] However, peptide 4 retained more than 50% of their alpha-helicity even at 95° C.

trypsin = target: T1, trypsin (Bos taurus, UniProt P00760); format: in vitro ADME; settings: for slope of ln[S] versus time (first order kinetics of trypsin digestion): 0.1 M NH4HCO3 buffer pH 8.0, room temperature
T1 construct: purchased Pierce 20230
T1 sequence (P00760 24-246): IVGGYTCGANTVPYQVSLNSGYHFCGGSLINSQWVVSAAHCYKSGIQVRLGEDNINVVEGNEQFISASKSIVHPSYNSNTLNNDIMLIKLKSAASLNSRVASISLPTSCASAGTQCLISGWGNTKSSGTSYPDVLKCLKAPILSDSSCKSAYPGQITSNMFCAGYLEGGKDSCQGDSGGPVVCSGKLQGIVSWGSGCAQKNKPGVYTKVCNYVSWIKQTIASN
Protocol: 0.4 mL of trypsin immobilized on agarose (Pierce, catalog #20230) was washed with 0.8 mL of a digestion buffer (0.1 M NH4HCO3 buffer, pH 8.0). The gel was separated from the buffer after each wash by centrifugation. The washed enzyme was suspended in 1.6 mL of the digestion buffer. 350 μL of a peptide solution (24 μM) in the digestion buffer was mixed with 150 μL of the enzyme suspension and the resulting mixture was incubated with rapid shaking at room temperature for 10, 30, 90, 135, 180 minutes. The incubation was quenched by filtering off the enzyme, and the residual substrate in the filtrate was quantified by HPLC-based peak detection at 280 nm.

chymotrypsin = assay: Stability of peptides against chymotrypsin; format: in vitro ADME; settings: compared with stapled peptide 5
[2] = Stability of peptides against guanidine hydrochloride (helicity); format: physicochemical

Row | alpha-helicity retained ([1]; at 95° C.) | slope of ln[S] versus time (first order kinetics of trypsin digestion) (trypsin) | half-life (trypsin; pH 8) | stability against chymotrypsin (in words) (chymotrypsin) | Compound | helical character by CD (in words) [1] | cooperative melting transition point (in words) ([1]; 4 to 95° C.) | thermal stability of the helix by CD (in words) ([1]; increasing temperature) | stability against the denaturing agent guanidine hydrochloride (in words) [2] | cooperative melting transition (Tm) ([1]; CD ellipticity at 222 nm, 4 to 95° C., peptide 94-100 μM in water, two-state model)
1 | more than 50% | 4.04±0.16×10^−5 min^−1 | 2.87 h | higher level of stability | CC(=O)N[C@@H](CCC(=O)O)C(=O)N[C@@H](Cc1c[nH]c2ccccc12)C(=O)N[C@@H](C)C(=O)N[C@@]1(C)CCC/C=C\CCC[C@]2(CCC/C=C/CCCCCC[C@@](C)(C(N)=O)NC(=O)[C@H](Cc3c[nH]cn3)NC(=O)[C@H](C)NC(=O)[C@H](C)NC(=O)[C@H](CC(C)C)NC(=O)[C@H](Cc3ccccc3)NC(=O)[C@H](CCCCN)NC2=O)NC(=O)[C@H](C)NC(=O)[C@H](C)NC(=O)[C@H]([C@@H](C)O)NC1=O [Peptide 4] | displayed the characteristic CD signature of alpha-helices | did not have a cooperative melting transition point | less affected by increasing temperature than single-stapled peptides 5 and 6 | remains fully helical even at extremely high concentrations of guanidine salt | –
2 | – | 7.11±0.66×10^−5 min^−1 | – | – | Peptide 5: single-stapled peptide, RCM product of Table 5 entry IX (SEQ ID 9) (Ac-EWA[Aib]TAA[R5]KFLAAH[S8]-NH2; staple 8-15 (inferred)) | – | – | – | – | 57 °C
3 | – | – | – | – | Peptide 8: i+4+4 stitched peptide, double RCM product of Table 5 entry XI (SEQ ID 11) (Ac-EWA[S5]TAA[2‑amino‑2‑(pent-4-enyl)hept‑6‑enoic acid]KFL[R5]AHA-NH2; staple 8-12, 4-8) | helical character greater than the stapled peptide 5 and less than that of the i+4+7 stitched peptide 4 | did not have a cooperative melting transition point | – | – | –
